Reference: US20210070748A1, “INHIBITORS OF BRUTONS TYROSINE KINASE” (Pharmacyclics LLC, priority 2015, published 2021)
Like-named read-outs stand apart in the source and are kept apart here.

Legend:
Assay type in all cases: biochemical
[1] = target: T1, BTK-WT (Homo sapiens, UniProt Q06187); experiment: Btk in vitro inhibitory activity (one of Method A TR-FRET, Method B electrophoretic mobility shift, Method C radiometric filter binding); conditions: read-out: IC50 BTK-WT
T1 construct: purified from insect cells as a full-length construct containing an N-terminal 6X-His tag; His6 (N); made in house; host or cells: insect cells (baculovirus Sf21 in Method B)
T1 sequence (Q06187 whole entry): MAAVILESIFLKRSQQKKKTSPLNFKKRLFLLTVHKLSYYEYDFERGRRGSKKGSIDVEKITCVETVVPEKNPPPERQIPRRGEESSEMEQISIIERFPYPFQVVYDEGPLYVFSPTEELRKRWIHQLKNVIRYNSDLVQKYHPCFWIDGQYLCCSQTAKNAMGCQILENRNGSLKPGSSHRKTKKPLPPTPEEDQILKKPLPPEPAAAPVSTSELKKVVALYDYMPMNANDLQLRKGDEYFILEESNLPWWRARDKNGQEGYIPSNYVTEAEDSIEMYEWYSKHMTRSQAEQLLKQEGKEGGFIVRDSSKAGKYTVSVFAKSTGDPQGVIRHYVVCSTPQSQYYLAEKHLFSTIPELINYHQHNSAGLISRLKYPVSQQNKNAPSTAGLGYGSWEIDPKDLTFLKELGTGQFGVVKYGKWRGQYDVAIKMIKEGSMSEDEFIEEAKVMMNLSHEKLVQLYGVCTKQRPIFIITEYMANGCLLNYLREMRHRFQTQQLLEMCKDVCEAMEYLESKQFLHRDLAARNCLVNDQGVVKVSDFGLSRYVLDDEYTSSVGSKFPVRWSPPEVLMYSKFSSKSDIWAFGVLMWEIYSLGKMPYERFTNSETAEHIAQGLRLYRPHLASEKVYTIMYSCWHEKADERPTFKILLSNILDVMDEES

[2] = target: T2, ITK (Homo sapiens, UniProt Q08881); experiment: Inhibition of a panel of kinases, in vitro HotSpot kinase assay: ITK
T2 sequence (Q08881 1-620): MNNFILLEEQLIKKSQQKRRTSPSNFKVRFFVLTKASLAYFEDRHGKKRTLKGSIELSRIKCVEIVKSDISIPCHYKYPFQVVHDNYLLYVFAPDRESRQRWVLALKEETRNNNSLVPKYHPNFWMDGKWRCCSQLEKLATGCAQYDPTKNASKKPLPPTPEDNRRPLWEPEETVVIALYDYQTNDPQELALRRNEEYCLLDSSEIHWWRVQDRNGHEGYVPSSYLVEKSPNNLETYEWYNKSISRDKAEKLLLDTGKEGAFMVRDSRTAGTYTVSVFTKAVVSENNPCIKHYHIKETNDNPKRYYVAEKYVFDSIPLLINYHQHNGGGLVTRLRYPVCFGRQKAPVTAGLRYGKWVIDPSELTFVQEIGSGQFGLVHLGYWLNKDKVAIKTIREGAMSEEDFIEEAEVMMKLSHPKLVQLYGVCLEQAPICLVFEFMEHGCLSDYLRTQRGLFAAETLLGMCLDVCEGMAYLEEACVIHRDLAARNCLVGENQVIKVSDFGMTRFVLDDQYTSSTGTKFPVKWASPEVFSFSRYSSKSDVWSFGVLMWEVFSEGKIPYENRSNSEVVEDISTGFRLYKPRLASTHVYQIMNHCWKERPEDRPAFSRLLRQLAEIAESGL
Protocol: (§1) The degree of inhibition of a panel of kinases is determined using the in vitro HotSpot kinase assay (purified enzymes, ^33P-ATP, an appropriate substrate and 1 μM ATP).

[3] = target: SRC (Homo sapiens, UniProt P12931); experiment: Inhibition of a panel of kinases, in vitro HotSpot kinase assay: SRC
Sequence of SRC (P12931 whole entry): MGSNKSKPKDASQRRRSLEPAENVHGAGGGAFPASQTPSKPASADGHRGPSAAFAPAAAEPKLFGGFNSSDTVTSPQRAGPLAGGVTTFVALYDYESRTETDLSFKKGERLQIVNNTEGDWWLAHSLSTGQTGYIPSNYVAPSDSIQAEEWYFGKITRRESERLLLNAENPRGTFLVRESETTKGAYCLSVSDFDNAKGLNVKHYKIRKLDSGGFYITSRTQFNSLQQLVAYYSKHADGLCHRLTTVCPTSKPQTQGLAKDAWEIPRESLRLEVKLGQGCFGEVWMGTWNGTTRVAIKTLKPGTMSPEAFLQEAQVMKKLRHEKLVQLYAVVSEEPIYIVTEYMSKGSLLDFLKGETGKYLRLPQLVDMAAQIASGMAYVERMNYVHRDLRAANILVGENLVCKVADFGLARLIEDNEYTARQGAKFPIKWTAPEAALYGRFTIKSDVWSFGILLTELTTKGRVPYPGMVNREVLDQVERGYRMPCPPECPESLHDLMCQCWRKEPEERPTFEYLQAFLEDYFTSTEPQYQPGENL
Protocol: as §1

[4] = target: T3, TEC (Homo sapiens, UniProt P42680); experiment: Inhibition of a panel of kinases, in vitro HotSpot kinase assay: TEC
T3 sequence (P42680 1-631): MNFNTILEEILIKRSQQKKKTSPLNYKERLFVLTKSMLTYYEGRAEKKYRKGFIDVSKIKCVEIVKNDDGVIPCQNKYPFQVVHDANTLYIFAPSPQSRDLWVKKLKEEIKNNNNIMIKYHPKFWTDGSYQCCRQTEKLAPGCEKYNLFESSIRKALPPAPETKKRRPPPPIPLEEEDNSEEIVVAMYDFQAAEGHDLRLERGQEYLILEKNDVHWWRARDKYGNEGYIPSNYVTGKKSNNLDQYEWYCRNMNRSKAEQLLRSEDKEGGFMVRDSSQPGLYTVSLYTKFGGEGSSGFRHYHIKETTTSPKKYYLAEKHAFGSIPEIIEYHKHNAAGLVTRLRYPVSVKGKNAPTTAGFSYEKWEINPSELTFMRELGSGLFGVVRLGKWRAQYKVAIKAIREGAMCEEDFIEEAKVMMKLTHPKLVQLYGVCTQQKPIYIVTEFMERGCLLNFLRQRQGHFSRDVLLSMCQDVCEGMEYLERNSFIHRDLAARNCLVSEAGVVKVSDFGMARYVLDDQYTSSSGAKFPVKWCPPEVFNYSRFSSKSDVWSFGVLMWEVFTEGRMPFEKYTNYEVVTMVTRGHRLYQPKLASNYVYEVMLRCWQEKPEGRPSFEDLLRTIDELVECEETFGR
Protocol: as §1

[5] = D-compounds panel data, 1 μM ATP

| IC50 ([1]; D-compounds panel data) [nM] | IC50 [2, 5] [nM] | IC50 [3, 5] [nM] | IC50 [4, 5] [nM] | SMILES | IC50 ([1]; E compounds, Table 17) [nM] | IC50 ([2]; E compounds, Table 17) [nM] | IC50 ([3]; E compounds, Table 17) [nM] | IC50 ([4]; E compounds, Table 17) [nM] |
| --- | --- | --- | --- | --- | --- | --- | --- | --- |
| ≤ 10 | > 10000 | > 10000 | 10 to 100 | C[C@@H]1[C@H](NC(=O)c2ccc(C3CC3)cc2)CCCN1c1cnc(C(N)=O)c(Nc2ccc(C3CCOCC3)cc2)n1 [Example D-317, 5-[(2R,3R)-3-(4-cyclopropylbenzamido)-2-methylpiperidin-1-yl]-3-{[4-(oxan-4-yl)phenyl]amino}pyrazine-2-carboxamide] | – | – | – | – |
| ≤ 10 | 100 to 1000 | 100 to 1000 | 10 to 100 | C[C@@H]1[C@H](NC(=O)c2ccc(C3CC3)cc2)CCCN1c1cnc(C(N)=O)c(Nc2cnc(N3CCN(C)CC3)nc2)n1 [Example D-318, 5-[(2R,3R)-3-(4-cyclopropylbenzamido)-2-methylpiperidin-1-yl]-3-{[2-(4-methylpiperazin-1-yl)pyrimidin-5-yl]amino}pyrazine-2-carboxamide] | – | – | – | – |
| ≤ 10 | 100 to 1000 | 10 to 100 | ≤ 10 | C[C@@H]1[C@H](NC(=O)c2ccc(C3CC3)cc2)CCCN1c1cnc(C(N)=O)c(Nc2cnn(CC3CCOCC3)c2)n1 [Example D-319, 5-[(2R,3R)-3-(4-cyclopropylbenzamido)-2-methylpiperidin-1-yl]-3-{[1-(oxan-4-ylmethyl)-1H-pyrazol-4-yl]amino}pyrazine-2-carboxamide] | – | – | – | – |
| ≤ 10 | 10 to 100 | 10 to 100 | ≤ 10 | C[C@@H]1[C@H](NC(=O)c2ccc(C3CC3)cc2)CCCN1c1cnc(C(N)=O)c(Nc2ccc(N3CCC(C(=O)N(C)C)CC3)cc2)n1 [Example D-320, 5-[(2R,3R)-3-(4-cyclopropylbenzamido)-2-methylpiperidin-1-yl]-3-({4-[4-(dimethylcarbamoyl)piperidin-1-yl]phenyl}amino)pyrazine-2-carboxamide] | – | – | – | – |
| 10 to 100 | 100 to 1000 | 100 to 1000 | 10 to 100 | C[C@@H]1[C@H](NC(=O)c2ccc(C3CC3)cc2)CCCN1c1cnc(C(N)=O)c(Nc2cnn(CC3CCC(F)(F)CC3)c2)n1 [Example D-321, 5-[(2R,3R)-3-(4-cyclopropylbenzamido)-2-methylpiperidin-1-yl]-3-({1-[(4,4-difluorocyclohexyl)methyl]-1H-pyrazol-4-yl}amino)pyrazine-2-carboxamide] | – | – | – | – |

Further lines, the molecule ahead of its results:

| SMILES | IC50 ([1]; D-compounds panel data) [nM] | IC50 [2, 5] [nM] | IC50 [3, 5] [nM] | IC50 [4, 5] [nM] | IC50 ([1]; E compounds, Table 17) [nM] | IC50 ([2]; E compounds, Table 17) [nM] | IC50 ([3]; E compounds, Table 17) [nM] | IC50 ([4]; E compounds, Table 17) [nM] |
| --- | --- | --- | --- | --- | --- | --- | --- | --- |
| C[C@@H]1[C@H](NC(=O)c2cnc(C3CC3)nc2)CCCN1c1cnc(C(N)=O)c(Nc2cnn(C)c2)n1 [Example D-86, 5-[(2R,3R)-3-(2-cyclopropylpyrimidine-5-amido)-2-methylpiperidin-1-yl]-3-[(1-methyl-1H-pyrazol-4-yl)amino]pyrazine-2-carboxamide] | ≤ 10 | 10 to 100 | 10 to 100 | ≤ 10 | – | – | – | – |
| C[C@@H]1[C@H](NC(=O)c2ccc(C(F)(F)F)cn2)CCCN1c1cnc(C(N)=O)c(Nc2cnn(C)c2)n1 [Example D-87, 3-[(1-methyl-1H-pyrazol-4-yl)amino]-5-[(2R,3R)-2-methyl-3-[5-(trifluoromethyl)pyridine-2-amido]piperidin-1-yl]pyrazine-2-carboxamide] | ≤ 10 | 100 to 1000 | 10 to 100 | 10 to 100 | – | – | – | – |
| C[C@@H]1[C@H](NC(=O)c2ccc(C(C)(C)C#N)cc2)CCCN1c1cnc(C(N)=O)c(Nc2cnn(C)c2)n1 [Example D-88, 5-[(2R,3R)-3-[4-(1-cyano-1-methylethyl)benzamido]-2-methylpiperidin-1-yl]-3-[(1-methyl-1H-pyrazol-4-yl)amino]pyrazine-2-carboxamide] | ≤ 10 | 100 to 1000 | 10 to 100 | 10 to 100 | – | – | – | – |
| C[C@@H]1[C@H](NC(=O)c2ccc(C3CC3)cc2)CCCN1c1cnc(C(N)=O)c(Nc2ccc(OC3CCN(C)CC3)cc2)n1 [Example D-89] | ≤ 10 | 100 to 1000 | 10 to 100 | 10 to 100 | – | – | – | – |
| C[C@@H]1[C@H](NC(=O)C23CC(C2)C3)CCCN1c1cnc(C(N)=O)c(Nc2cnn(C)c2)n1 [Example D-90, 5-[(2R,3R)-3-{bicyclo[1.1.1]pentane-1-amido}-2-methylpiperidin-1-yl]-3-[(1-methyl-1H-pyrazol-4-yl)amino]pyrazine-2-carboxamide] | 10 to 100 | 100 to 1000 | 100 to 1000 | 10 to 100 | – | – | – | – |
| C[C@@H]1[C@H](NC(=O)c2ccc(C(F)(F)F)nc2)CCCN1c1cnc(C(N)=O)c(Nc2cnn(C)c2)n1 [Example D-91, 3-[(1-methyl-1H-pyrazol-4-yl)amino]-5-[(2R,3R)-2-methyl-3-[6-(trifluoromethyl)pyridine-3-amido]piperidin-1-yl]pyrazine-2-carboxamide] | ≤ 10 | 100 to 1000 | 10 to 100 | 10 to 100 | – | – | – | – |
| C[C@@H]1[C@H](NC(=O)c2ccc(C3CC3)cc2)CCCN1c1cnc(C(N)=O)c(Nc2ccc(N3CCN(C)CC3)c(C(F)(F)F)c2)n1 [Example D-92, 5-[(2R,3R)-3-(4-cyclopropylbenzamido)-2-methylpiperidin-1-yl]-3-{[4-(4-methylpiperazin-1-yl)-3-(trifluoromethyl)phenyl]amino}pyrazine-2-carboxamide] | ≤ 10 | 1000 to 10000 | 100 to 1000 | 10 to 100 | – | – | – | – |
| C[C@@H]1[C@H](N2CCN(C)C2=O)CCCN1c1cnc(C(N)=O)c(Nc2cnn(C)c2)n1 [Example D-93, 3-[(1-methyl-1H-pyrazol-4-yl)amino]-5-[(2R,3R)-2-methyl-3-(3-methyl-2-oxoimidazolidin-1-yl)piperidin-1-yl]pyrazine-2-carboxamide] | 10 to 100 | 100 to 1000 | 10 to 100 | 10 to 100 | – | – | – | – |
| C[C@@H]1[C@H](NC(=O)c2ccc(C(C)(C)CO)cc2)CCCN1c1cnc(C(N)=O)c(Nc2cnn(C)c2)n1 [Example D-94, 5-[(2R,3R)-3-[4-(1-hydroxy-2-methylpropan-2-yl)benzamido]-2-methylpiperidin-1-yl]-3-[(1-methyl-1H-pyrazol-4-yl)amino]pyrazine-2-carboxamide] | ≤ 10 | 100 to 1000 | 10 to 100 | 10 to 100 | – | – | – | – |
| C[C@@H]1[C@H](NC(=O)c2ccc(C3CC3)cc2)CCCN1c1cnc(C(N)=O)c(Nc2ccc(CN3CCOCC3)cc2)n1 [Example D-316, 5-[(2R,3R)-3-(4-cyclopropylbenzamido)-2-methylpiperidin-1-yl]-3-{[4-(morpholin-4-ylmethyl)phenyl]amino}pyrazine-2-carboxamide] | ≤ 10 | 100 to 1000 | 10 to 100 | 10 to 100 | – | – | – | – |
| C=CC(=O)N1CC[C@@H](N(C)c2cnc(C(N)=O)c(Nc3ccc(C4(C)CCN(C5CC5)CC4)cc3)n2)C1 [Example E-104, (R)-5-((1-acryloylpyrrolidin-3-yl)(methyl)amino)-3-(4-(1-cyclopropyl-4-methylpiperidin-4-yl)phenylammo)pyrazine-2-carboxamide] | – | – | – | – | ≤ 10 | ≤ 10 | 10 to 100 | ≤ 10 |
| C=CC(=O)N1CC[C@@H](N(C)c2cnc(C(N)=O)c(Nc3ccc(C4(C)CCN(C5CCCC5)CC4)cc3)n2)C1 [Example E-106, (R)-5-((1-acryloylpyrrolidin-3-yl)(methyl)amino)-3-(4-(1-cyclopentyl-4-methylpiperidin-4-yl)phenylamino)pyrazine-2-carboxamide] | – | – | – | – | ≤ 10 | ≤ 10 | ≤ 10 | ≤ 10 |
| C=CC(=O)N1CCC[C@@H](Nc2cnc(C(N)=O)c(Nc3ccc(C4CCN(C5CCCC5)CC4)cc3)n2)C1 [Example E-108, (R)-5-(1-acryloylpiperidin-3-ylamino)-3-(4-(1-cyclopentylpiperidin-4-yl)phenylamino)pyrazine-2-carboxamide] | – | – | – | – | ≤ 10 | ≤ 10 | 10 to 100 | ≤ 10 |
